Experiments:
H719 = assay: MTT cell viability, H719; type: cell-based; settings: 96 h; SCLC lung cell line H719; 4 days incubation
Description: (§1) The ability of the flurbiprofen analog compounds of the invention to inhibit cancer cell growth and survival (viability) in a variety of cancer lines was examined in a standard MTT assay for cell viability, as detailed in Example 2.
(§2) The studies reported in Tables 1-3 above were carried out by incubating the cells in the test compound for four days, under standard cell-culture conditions, and measuring cell survival on day 5 (see Example 2).
(§3) Cell growth and survival following treatment with N—[(S)-2-Fluoro-α-methyl-4-biphenylacetyl]-[L-(4-phenylphenyl)alanine]-N-(2,2,6,6-tetramethyl-4-piperidinyl)amide (GCBH-110=B1031; (S)-Fmba-L-Bip-Atmp) were measured by a rapid colorimetric assay based on the tetrazolium salt MTT (3-(4,5-dimethylthiazol-2-yl)-2,5-diphenyl tetrazolium bromide) (Mosmann, J. Immunol. Methods 65: 55-63, 1983, with minor modifications).
(§4) Briefly, approximately 1,000-5,000 cancer cells from 15 different cancer cells lines were plated in 100 μL of growth medium in 96-well flat-bottomed microtiter plates. Cells were incubated overnight to allow recovery. Compounds to be tested were added to the cells in triplicate in a range of concentrations and the cells were incubated at 37° C., 5% CO2, with 100% humidity. Control cells were treated in the same way without antagonists. […] Absorbance was immediately determined using a scanning multiwell plate reader.

H1264 = assay: MTT cell viability, H1264; type: cell-based; settings: 96 h; Adenosquamous lung cell line H1264; 4 days incubation
Description: as §1, §2, §3, §4

[1] = tested on: H2122 lung carcinoma solid tumor xenograft; assay: H2122 lung carcinoma xenograft in nude mice; type: in vivo, athymic nude mice; settings: 5 mg/kg daily intraperitoneal, from day 7 after implantation, over the 25 days of treatment, FIG. 11
Description: The efficacy of the treatment method was examined for both lung carcinoma-cell tumors and pancreatic-cell tumors implanted in athymic mice, according to the method detailed in Example 3. In the first study, mice injected with lung-carcinoma cells were treated, seven days after cancer-cell implantation, by daily injection of 5 mg/kg body weight of one of three different flurbiprofen analog compounds: B1005 (GCBH 104); B1020 (GCBH 108) and B1031 (GCBH 110). Tumor size was measured by calipers at the days indicated in FIG. 11, with final tumor weight and volume being determined by extracting the tumor from the sacrificed animals.
Compounds having high in vitro cytotoxic activity were tested against implanted tumors in vivo. In one study, athymic nude mice were implanted subcutaneously with suspensions of approximately 2 million H2122 lung carcinoma cells, in Matrigel suspension. On the seventh day after tumor implantation, groups of 5 mice bearing implants were injected intraperitoneally with the compounds being tested at 5 mg/kg/every day; control animals were injected with an equal volume of isotonic saline. […] Tumor size was measured with a caliper three times per week. Tumor volume was calculated by the formula: Volume (cc)=3.14×(length)×(width)^2/6
At autopsy, tumors were removed and weighed. Tumor inhibition was calculated on both weight and measurement basis.

Panc-327 = assay: MTT cell viability, Panc-327; type: cell-based; settings: Pancreatic cancer cell, 96 h; Pancreatic cancer cells Panc-327; 4 days incubation
From the text: as §1
(§5) Similar results were obtained for the effect of the B1031 compound on the 14 pancreatic tumor cells lines shown in Table 3 below, where the dose dependent effect of the compound on survival of the pancreatic cancer cell lines is shown in FIG. 5.
as §2, §3
(§6) Briefly, approximately 1,000-5,000 cancer cells from 15 different cancer cells lines were plated in 100 μL of growth medium in 96-well flat-bottomed microtiter plates. Cells were incubated overnight to allow recovery. […] Absorbance was immediately determined using a scanning multiwell plate reader.

L35 = assay: MTT cell viability, L35; type: cell-based; settings: Pancreatic cancer cell, 96 h; Pancreatic cancer cells L35; 4 days incubation
From the text: as §1, §5, §2, §3, §6

A549 = assay: MTT cell viability, A549; type: cell-based; settings: Homo sapiens, 96 h; Adenocarcinoma lung cell line A549; 4 days incubation
Description: as §1, §2, §3, §4

UMSCC2 = assay: MTT cell viability, UMSCC2; type: cell-based; settings: UM-SCC2; Head and neck cancer cell line UMSCC2
Description: as §1
(§7) A similar study was conducted on 14 […] cancer cell lines, identified in Table 2.
as §3
(§8) Briefly, approximately 1,000-5,000 cancer cells from 15 different cancer cells lines were plated in 100 μL of growth medium in 96-well flat-bottomed microtiter plates. Cells were incubated overnight to allow recovery. Compounds to be tested were added to the cells in triplicate in a range of concentrations and the cells were incubated at 37° C., 5% CO2, with 100% humidity. Control cells were treated in the same way without antagonists. […] Plates were incubated for 4 days, allowing sufficient time for cell replication and compound-induced cell death to occur. […] Absorbance was immediately determined using a scanning multiwell plate reader. […]

HN31 = assay: MTT cell viability, HN31; type: cell-based; settings: Head and neck cancer cell line HN31
Description: as §1, §7, §3, §8

WM239a = assay: MTT cell viability, WM239a; type: cell-based; settings: Melanoma cell line WM239a
From the text: as §1
The results for the several cell lines above were also consistent with IC50 values measured for two melanoma cell lines shown in Table 4 below.
as §3, §4

UMSCC22B = assay: MTT cell viability, UMSCC22B; type: cell-based; settings: Homo sapiens; Head and neck cancer cell line UMSCC22B
Description: as §1, §7, §3, §8

H441 = assay: MTT cell viability, H441; type: cell-based; settings: Homo sapiens, NCI-H441, 96 h; Adenocarcinoma lung cell line H441; 4 days incubation
Description: as §1, §2, §3, §4

H157 = assay: MTT cell viability, H157; type: cell-based; settings: Homo sapiens, NCI-H157, 96 h; Squamous lung cell line H157; 4 days incubation
Description: as §1, §2, §3, §4

H520 = assay: MTT cell viability, H520; type: cell-based; settings: Homo sapiens, NCI-H520, 96 h; Squamous lung cell line H520; 4 days incubation
Description: as §1, §2, §3, §4

IC50 (H719): 1080 nM
IC50 (H1264): 630 nM
IC50 (Panc-327): 670 nM
IC50 (A549): 550 nM
IC50 (H441): 1600 nM
IC50 (H157): 210 nM
IC50 (H520): 250 nM
Structure (SMILES): C[C@H](C(=O)N[C@@H](Cc1ccc(-c2ccccc2)cc1)C(=O)NC1CC(C)(C)NC(C)(C)C1)c1ccc(-c2ccccc2)c(F)c1 [GCBH-110, N—[(S)-2-Fluoro-α-methyl-4-biphenylacetyl]-[L-(4-phenylphenyl)alanine]-N-(2,2,6,6-tetramethyl-4-piperidinyl)amide]
inhibition of growth of the lung carcinoma cell line H2122 tumor [1]: 76%
IC50 (L35): 800 nM
IC50 (UMSCC2): 950 nM
IC50 (HN31): 540 nM
IC50 (WM239a): 230 nM
IC50 (UMSCC22B): 300 nM

From patent US8575170B2, “Flurbiprofen analogs and methods of use in treating cancer” (The Regents of the Unversity of Colorado, a body corporate, priority 2010, dated 2013)
